This is an account of results in EP3856897B1 (Anadolu Universitesi, priority 2018, dated 2020).

Experiment [1] concerns the target T1, recombinant Tetrahymena thermophila Glutathione S Transferase Mu34 (TtGSTm34-8xHis) enzyme, SEQ ID NO: 1 (Tetrahymena thermophila, UniProt I7M2D2).
T1 sequence (I7M2D2 39-257): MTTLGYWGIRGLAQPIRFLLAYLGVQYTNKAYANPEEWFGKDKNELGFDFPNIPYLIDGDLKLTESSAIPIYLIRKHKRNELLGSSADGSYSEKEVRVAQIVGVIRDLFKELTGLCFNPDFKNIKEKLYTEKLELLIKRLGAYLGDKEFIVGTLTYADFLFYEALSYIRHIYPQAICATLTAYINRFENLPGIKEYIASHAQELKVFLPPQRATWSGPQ
The experiment is described as follows: Enzyme kinetics of recombinant TtGSTm34-8xHis for substrates GSH and CDNB (spectrophotometric at 340 nm, Lineweaver-Burk). Type of experiment: biochemical. To be noted: 200 mM potassium phosphate buffer, 25°C; for Km: 7 substrate concentrations 0.1125-3.6 mM, the other substrate (GSH or CDNB) held at 0.9 mM, Lineweaver-Burk graph; for Kcat: kcat = Vmax/Et, the other substrate held at 0.9 mM. As to the method:
Determination of GST enzyme activities of affinity purified proteins was performed spectrophotometrically in the presence of 1-chloro-2,4-dinitrobenzene (CDNB) as substrate. […] The enzyme activities were measured with BioTek The Synergy ™ HT Elisa device using Gen5 software. The O.D values for enzyme activity were determined at 340 nm for 30 minutes with 2 minutes intervals, using BioTek The Synergy™ HT Elisa Reader kinetics program.
Unit value of activity is defined as the amount of enzyme that catalyzes 1 µmol substrate at 25°C (CDNB extinction coefficient340 nm = 9.6 mM^-1 cm^-1). The enzyme activities were first calculated in terms of U/ml. Then these values were divided by protein concentrations that were determined by Bradford method (Pierce™ Coomassie Plus Bradford Assay Reagent Cat no: 23238). This way specific activities were calculated in terms of U/mg.
Then activity measurements were carried out in 200 mM potassium phosphate buffer at 25°C for 7 different CDNB concentrations: 0,1125 mM, 0,225 mM, 0,45 mM, 0,9 mM, 1,8 mM, 2,7 mM ve 3,6 mM. A 1/V^- 1 [CDNB] Lineweaver-Burk graph was drawn according to the results obtained (Figure 8). With this graphical aid, Km and Vmax values for CDNB were determined.
These calculations were followed by quantitative protein assay (Bradford) and total enzyme amount (Et) was determined. Kcat value, which reflects the enzyme turnover number was calculated using the formula given below: kcat = Vmax /Et [formula]
One way of comparing the catalytic effects of various enzymes or the conversion of different substrates to the product with the same enzyme is to find the specificity constant (V0) for the reactions. The specificity constant is calculated by the following formula: V0 = kcat /km [formula]

Experiment [2] has as its target T2, mu class glutathione S-transferase from Manila clam Ruditapes philippinarum (RpGSTµ) (Ruditapes philippinarum, UniProt G9HSP7).
T2 sequence (G9HSP7 1-217): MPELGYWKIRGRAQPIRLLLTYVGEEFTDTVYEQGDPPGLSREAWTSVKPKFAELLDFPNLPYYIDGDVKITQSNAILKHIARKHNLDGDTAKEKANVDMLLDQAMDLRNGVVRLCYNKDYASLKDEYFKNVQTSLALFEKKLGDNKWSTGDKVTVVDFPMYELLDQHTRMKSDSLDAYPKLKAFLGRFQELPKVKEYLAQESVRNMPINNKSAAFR
The following applies: from Bathige et al., 2014, cited from earlier work.

SMILES strings stand for the structures. Where two headings read alike, the source gives them in different places.

`N[C@@H](CCC(=O)N[C@@H](CS)C(=O)NCC(=O)O)C(=O)O` [GSH, glutathione]: the results for the Km in experiment [1] (read-out: Km) and in experiment [2] (read-out: Km) were 540 µM and 1030 µM, respectively. The Kcat in experiment [1] is 186.9 s⁻¹.

Turning to `O=[N+]([O-])c1ccc(Cl)c([N+](=O)[O-])c1` [CDNB, 1-Chloro-2,4-dinitrobenzene], in experiment [1], the Km (commonly the substrate concentration at which the rate is half of its maximum) is 470 µM and the Kcat was determined as 195.4 s⁻¹. The Km in experiment [2] was 560 µM.
